Results published in patent publication EP0838471A1, “PEPTIDE DERIVATIVES AND ANGIOTENSIN IV RECEPTOR AGONIST” (SAGAMI CHEMICAL RESEARCH CENTER, priority 1995, dated 1997).
Structures can show the parent of a compound that is named as a salt.

Target: T1, angiotensin IV receptor (Cavia porcellus, UniProt H0VNM7)
T1 sequence (H0VNM7 1-1025): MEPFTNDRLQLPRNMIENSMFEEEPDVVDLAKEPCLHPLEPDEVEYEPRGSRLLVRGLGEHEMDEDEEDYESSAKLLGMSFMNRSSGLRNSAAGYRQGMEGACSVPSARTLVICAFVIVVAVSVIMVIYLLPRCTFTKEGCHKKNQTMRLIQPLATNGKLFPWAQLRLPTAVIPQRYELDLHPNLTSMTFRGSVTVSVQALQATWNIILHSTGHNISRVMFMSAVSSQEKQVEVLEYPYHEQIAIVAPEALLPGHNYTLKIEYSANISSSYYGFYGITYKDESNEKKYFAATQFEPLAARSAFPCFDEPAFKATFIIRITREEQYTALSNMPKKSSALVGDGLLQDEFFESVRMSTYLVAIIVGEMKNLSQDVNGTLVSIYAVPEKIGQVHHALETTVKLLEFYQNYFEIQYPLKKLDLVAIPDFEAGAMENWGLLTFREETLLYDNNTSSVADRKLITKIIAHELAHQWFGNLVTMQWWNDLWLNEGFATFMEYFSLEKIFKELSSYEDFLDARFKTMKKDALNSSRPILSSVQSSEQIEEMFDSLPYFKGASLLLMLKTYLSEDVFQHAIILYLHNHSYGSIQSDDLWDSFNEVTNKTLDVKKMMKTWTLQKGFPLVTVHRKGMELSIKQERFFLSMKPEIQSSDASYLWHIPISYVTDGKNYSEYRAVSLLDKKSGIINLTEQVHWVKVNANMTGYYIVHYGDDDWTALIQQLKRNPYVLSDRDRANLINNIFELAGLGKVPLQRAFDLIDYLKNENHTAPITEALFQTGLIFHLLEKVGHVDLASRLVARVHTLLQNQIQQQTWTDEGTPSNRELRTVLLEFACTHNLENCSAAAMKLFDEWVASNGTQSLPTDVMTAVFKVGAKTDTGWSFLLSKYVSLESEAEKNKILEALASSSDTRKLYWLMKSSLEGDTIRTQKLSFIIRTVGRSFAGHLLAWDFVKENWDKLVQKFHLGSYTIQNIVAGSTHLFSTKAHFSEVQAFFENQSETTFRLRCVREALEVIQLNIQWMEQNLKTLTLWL
Assay: Binding to angiotensin IV receptor (125I-angiotensin IV displacement, crude membrane specimen)
Details: Hartley guinea pig hippocampus membrane; 0.2 nM 125I-angiotensin IV; 37°C for 90 minutes; nonspecific bond with 1 µM angiotensin IV
Protocol: The capability of binding to angiotensin IV receptor was measured by using Hartley guinea pig hippocampus in accordance with the method reported by Miller-Wing et al., J. Pharmacol. Exp. Therp., 266:1718 (1993).
The Hartley guinea pig hippocampus was homogenized in a 50 mM Tris hydrochloride buffer solution (pH 7.4) containing 1 mM of ethylenediamine-N,N,N',N'-tetraacetic acid (EDTA) and 100 µm of phenylmethanesufonyl fluoride (PMSF). After centrifuging at 900 × g, the supernatant thus obtained was further centrifuged at 48,000 × g. The precipitate was washed once with the same buffer solution and then the precipitate was suspended in a 50 mM Tris hydrochloride buffer solution (pH 7.4) containing 150 mM of sodium chloride, 1 mM of EDTA, 100 µm of PMSF and 0.1% of bovine serum albumin (BSA) in such a manner as to give a protein concentration of 50 µg/ml to thereby give a crude membrane specimen.
This membrane specimen was allowed to react with 0.2 nM ^125I-angiotensin IV and a test compound dissolved in dimethyl sulfoxide at 37°C for 90 minutes. Then ^125I-angiotensin IV binding to the membrane was filtered under suction onto GF/B filer paper with the use of a cell harvester for laboratory use. The radioactivity on the filter paper was measured with a gamma-counter. The nonspecific bond was measured in the presence of 1 µM of angiotensin IV and the specific bond was calculated by subtracting the nonspecific bond from the total bond. The capability (IC50) of the test compound of binding to angiotensin IV receptor was determined as the concentration of the test compound capable of inhibiting the binding at an extent of 50% from the inhibition curve obtained by reacting 0.2 nM ^125I-angiotensin IV with the test compound at various concentrations.

Question: With `CC[C@H](C)[C@H](CCc1ccccc1)NC(=O)[C@H](Cc1ccc(O)cc1)NC(=O)[C@@H](N)C(C)C` [Example 59, (3S,4S)-N'-(L-valyl)-N-(4-methyl-1-phenylhexan-3-yl)-L-tyrosinamide hydrochloride] as the compound, how does the IC50 read?
Answer: Its IC50 is 26.5 nM.

Question: With `CCCC[C@H](N)C(=O)N[C@@H](Cc1ccc(O)cc1)C(=O)N[C@@H](CCc1ccc(C)cc1)[C@@H](C)CC` [Example 61, (3S,4S)-N'-(L-norleucyl)-N-[4-methyl-1-(4-methylphenyl)-1-hexan-3-yl]-L-tyrosinamide hydrochloride] as the compound, how does the IC50 read?
Answer: The IC50 was 24.2 nM.

Question: Which IC50 does the source give for “L-valyl-L-tyrosyl-N-(4-pyridylmethyl)-L-isoleucinamide [Example 9]” here?
Answer: Its IC50 is 5.99 nM.

Question: Which IC50 does the source give for “N'-[N-(L-norleucyl)-N^im-benzyl-L-histidyl]-N-(2-phenylethyl)-L-leucinamide dihydrochloride [Example 33]” here?
Answer: The IC50 was 12.6 nM.

Question: How did the IC50 turn out when “N'-[N-[L-2-amino-3-(ethylthio)propionyl]-L-tyrosyl]-N-(2-phenylethyl)-L-leucinamide hydrochloride [Example 18]” was run?
Answer: The IC50 was 0.4 nM.
